Experimental data reported in PubChem BioAssay (NCI).
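Each compound was tested at five concentrations against cells in 96-well plates for 48 hours. TGI: concentration producing complete growth inhibition.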

Key:
Test in all cases: DTP human tumour cell line panel, 48 h
786-0 renal = tested on: 786-0 renal
A549 NSCLC = tested on: A549 NSCLC
ACHN renal = tested on: ACHN renal
BT-549 breast = tested on: BT-549 breast
CAKI-1 renal = tested on: CAKI-1 renal
CCRF-CEM leukemia = tested on: CCRF-CEM leukemia
COLO 205 colon = tested on: COLO 205 colon
DU-145 prostate = tested on: DU-145 prostate
EKVX NSCLC = tested on: EKVX NSCLC
HCC-2998 colon = tested on: HCC-2998 colon
HCT-116 colon = tested on: HCT-116 colon
HCT-15 colon = tested on: HCT-15 colon
HL-60(TB) leukemia = tested on: HL-60(TB) leukemia
HOP-62 NSCLC = tested on: HOP-62 NSCLC
HOP-92 NSCLC = tested on: HOP-92 NSCLC
HS 578T breast = tested on: HS 578T breast
HT29 colon = tested on: HT29 colon
IGROV1 ovarian = tested on: IGROV1 ovarian
K-562 leukemia = tested on: K-562 leukemia
KM12 colon = tested on: KM12 colon
LOX IMVI melanoma = tested on: LOX IMVI melanoma
M14 melanoma = tested on: M14 melanoma
MALME-3M melanoma = tested on: MALME-3M melanoma
MCF7 breast = tested on: MCF7 breast
MDA-MB-231 breast = tested on: MDA-MB-231 breast
MDA-MB-435 = tested on: MDA-MB-435
MDA-N = tested on: MDA-N
MOLT-4 leukemia = tested on: MOLT-4 leukemia
NCI-H226 lung = tested on: NCI-H226 lung
NCI-H23 lung = tested on: NCI-H23 lung
NCI-H460 lung = tested on: NCI-H460 lung
NCI-H522 lung = tested on: NCI-H522 lung
NCI/ADR-RES ovarian = tested on: NCI/ADR-RES ovarian
OVCAR-3 ovarian = tested on: OVCAR-3 ovarian
OVCAR-4 ovarian = tested on: OVCAR-4 ovarian
OVCAR-5 ovarian = tested on: OVCAR-5 ovarian
OVCAR-8 ovarian = tested on: OVCAR-8 ovarian
PC-3 prostate = tested on: PC-3 prostate
RPMI-8226 leukemia = tested on: RPMI-8226 leukemia
RXF 393 renal = tested on: RXF 393 renal
SF-268 CNS = tested on: SF-268 CNS
SF-295 CNS = tested on: SF-295 CNS
SF-539 CNS = tested on: SF-539 CNS
SK-MEL-2 melanoma = tested on: SK-MEL-2 melanoma
SK-MEL-28 melanoma = tested on: SK-MEL-28 melanoma
SK-MEL-5 melanoma = tested on: SK-MEL-5 melanoma
SK-OV-3 ovarian = tested on: SK-OV-3 ovarian
SN12C renal = tested on: SN12C renal
SNB-19 CNS = tested on: SNB-19 CNS
SNB-75 CNS = tested on: SNB-75 CNS
SR leukemia = tested on: SR leukemia
SW-620 colon = tested on: SW-620 colon
T-47D breast = tested on: T-47D breast
TK-10 renal = tested on: TK-10 renal
U251 CNS = tested on: U251 CNS
UACC-257 melanoma = tested on: UACC-257 melanoma
UACC-62 melanoma = tested on: UACC-62 melanoma
UO-31 renal = tested on: UO-31 renal

COc1cc(N(CCC#N)CCC#N)ccc1/C(N=Nc1ccccc1)=N/NC(=O)c1cc(Br)ccc1O
TGI (786-0 renal): > 100 µM
TGI (A549 NSCLC): > 100 µM
TGI (ACHN renal): 81.6 µM
TGI (BT-549 breast): 65.2 µM
TGI (CAKI-1 renal): 61.4 µM
TGI (CCRF-CEM leukemia): 33.2 µM
TGI (COLO 205 colon): 29.8 µM
TGI (DU-145 prostate): 74.3 µM
TGI (EKVX NSCLC): 69.2 µM
TGI (HCC-2998 colon): 48 µM
TGI (HCT-116 colon): 44.1 µM
TGI (HCT-15 colon): 68.2 µM
TGI (HL-60(TB) leukemia): 36.6 µM
TGI (HOP-62 NSCLC): 95.5 µM
TGI (HOP-92 NSCLC): 68.6 µM
TGI (HS 578T breast): > 100 µM
TGI (HT29 colon): 71.4 µM
TGI (IGROV1 ovarian): 35 µM
TGI (K-562 leukemia): 42.7 µM
TGI (KM12 colon): > 100 µM
TGI (LOX IMVI melanoma): 65.1 µM
TGI (M14 melanoma): > 100 µM
TGI (MALME-3M melanoma): > 100 µM
TGI (MCF7 breast): 55.5 µM
TGI (MDA-MB-231 breast): 62.6 µM
TGI (MDA-MB-435): > 100 µM
TGI (MDA-N): > 100 µM
TGI (MOLT-4 leukemia): 38.3 µM
TGI (NCI-H226 lung): > 100 µM
TGI (NCI-H23 lung): 49.8 µM
TGI (NCI-H460 lung): 51.1 µM
TGI (NCI-H522 lung): 67.9 µM
TGI (NCI/ADR-RES ovarian): > 100 µM
TGI (OVCAR-3 ovarian): 83.5 µM
TGI (OVCAR-4 ovarian): 64.4 µM
TGI (OVCAR-5 ovarian): > 100 µM
TGI (OVCAR-8 ovarian): > 100 µM
TGI (PC-3 prostate): > 100 µM
TGI (RPMI-8226 leukemia): 44.6 µM
TGI (RXF 393 renal): 70.9 µM
TGI (SF-268 CNS): > 100 µM
TGI (SF-295 CNS): > 100 µM
TGI (SF-539 CNS): 83.7 µM
TGI (SK-MEL-2 melanoma): 85.1 µM
TGI (SK-MEL-28 melanoma): 87.6 µM
TGI (SK-MEL-5 melanoma): 42.3 µM
TGI (SK-OV-3 ovarian): > 100 µM
TGI (SN12C renal): 96.6 µM
TGI (SNB-19 CNS): > 100 µM
TGI (SNB-75 CNS): > 100 µM
TGI (SR leukemia): 43.7 µM
TGI (SW-620 colon): > 100 µM
TGI (T-47D breast): 57.8 µM
TGI (TK-10 renal): > 100 µM
TGI (U251 CNS): > 100 µM
TGI (UACC-257 melanoma): 62.8 µM
TGI (UACC-62 melanoma): 46.7 µM
TGI (UO-31 renal): 57.5 µM

O=C1NC(N2CCCC(CO)C2)=N/C1=C\c1ccc(Cl)cc1 (stereo not given)
TGI (786-0 renal): > 100 µM
TGI (A549 NSCLC): > 100 µM
TGI (ACHN renal): > 100 µM
TGI (BT-549 breast): > 100 µM
TGI (CAKI-1 renal): > 100 µM
TGI (CCRF-CEM leukemia): > 100 µM
TGI (COLO 205 colon): > 100 µM
TGI (DU-145 prostate): > 100 µM
TGI (EKVX NSCLC): > 100 µM
TGI (HCC-2998 colon): > 100 µM
TGI (HCT-116 colon): > 100 µM
TGI (HCT-15 colon): > 100 µM
TGI (HL-60(TB) leukemia): > 100 µM
TGI (HOP-62 NSCLC): > 100 µM
TGI (HOP-92 NSCLC): > 100 µM
TGI (HS 578T breast): > 100 µM
TGI (HT29 colon): > 100 µM
TGI (IGROV1 ovarian): > 100 µM
TGI (K-562 leukemia): > 100 µM
TGI (KM12 colon): > 100 µM
TGI (LOX IMVI melanoma): > 100 µM
TGI (M14 melanoma): > 100 µM
TGI (MALME-3M melanoma): > 100 µM
TGI (MCF7 breast): > 100 µM
TGI (MDA-MB-231 breast): > 100 µM
TGI (MDA-MB-435): > 100 µM
TGI (MDA-N): > 100 µM
TGI (MOLT-4 leukemia): > 100 µM
TGI (NCI-H226 lung): > 100 µM
TGI (NCI-H23 lung): > 100 µM
TGI (NCI-H522 lung): > 100 µM
TGI (NCI/ADR-RES ovarian): > 100 µM
TGI (OVCAR-3 ovarian): > 100 µM
TGI (OVCAR-4 ovarian): > 100 µM
TGI (OVCAR-5 ovarian): > 100 µM
TGI (OVCAR-8 ovarian): > 100 µM
TGI (PC-3 prostate): > 100 µM
TGI (RPMI-8226 leukemia): > 100 µM
TGI (RXF 393 renal): > 100 µM
TGI (SF-268 CNS): > 100 µM
TGI (SF-295 CNS): > 100 µM
TGI (SF-539 CNS): > 100 µM
TGI (SK-MEL-2 melanoma): > 100 µM
TGI (SK-MEL-28 melanoma): > 100 µM
TGI (SK-MEL-5 melanoma): > 100 µM
TGI (SK-OV-3 ovarian): > 100 µM
TGI (SN12C renal): > 100 µM
TGI (SNB-19 CNS): > 100 µM
TGI (SNB-75 CNS): > 100 µM
TGI (SR leukemia): > 100 µM
TGI (SW-620 colon): > 100 µM
TGI (T-47D breast): > 100 µM
TGI (TK-10 renal): > 100 µM
TGI (U251 CNS): > 100 µM
TGI (UACC-257 melanoma): > 100 µM
TGI (UACC-62 melanoma): > 100 µM
TGI (UO-31 renal): > 100 µM
